Holding throughout (assay type): cell-based
Assay [1] concerns E. coli ESBL4 expressing CTX-M-15. The assay can be described thus: broth microdilution MIC, E. coli CTX-M-15. The text has this:
(§1) To determine the ability of test compounds to potentiate the inhibition of the growth of bacterial strains that produce beta-lactamase enzymes, classic cell based broth microdilution MIC assays were employed. Six bacteria strains producing beta-lactamase enzymes were used: E. coli expressing the Class A Extended Spectrum Beta-Lactamase (ESBL) CTX-M-15, E. cloacae expressing the Class C P99, K. pneumoniae expressing the Class A carbapenemase KPC-3, P. aeruginosa expressing the Class B carbapenemase VIM-2, K pneumoniae expressing the class A carbapenemase KPC-2 and the class B carbapenemase VIM-4, and S. aureus producing the Class A penicillinase PC-1. The assay was conducted in Cation Adjusted Mueller Hinton Broth (CAMHB, BD #212322, BD Diagnostic Systems, Sparks, Md.). Bacteria strains were grown for 3-5 hours in CAMBH broth. Test compounds were added to a microtiter plate in 2-fold serial dilutions in CAMHB in a final concentration range of 32 μg/mL to 0.25 μg/ml. An overlay of CAMHB containing a Beta-lactam was added to the compounds at a final static concentration of 4 μg/ml. […] In addition to the titration of test compounds the MICs of a panel of control beta-lactams is also tested to ensure the strains are behaving consistently from test to test. Once the test compound and antibiotics are added the plates can be inoculated according to CLSI broth microdilution method. After inoculation the plates are incubated for 16-20 hours at 37° C., then the Minimal Inhibitory Concentration (MIC) of the test compound is determined visually.
(§2) Using the methodology described above, examples of the current invention were evaluated for their ability to inhibit the growth of β-lactamase-producing bacteria in the presence of a β-lactam antibiotic.
(§3) Representative results are shown in Table 4 where A represents an MIC of the fixed β-lactam antibiotic in the presence of >32 µg/mL of a β-lactamase inhibitor of exemplary compounds, B represents the MIC in the presence of between 8 and 32 µg/mL of a β-lactamase inhibitor of exemplary compounds, and C represents the MIC in the presence of ≤4 µg/mL of a β-lactamase inhibitor of exemplary compounds. NT=Not Tested.

The test system of assay [2] is E. cloacae 144200 expressing Class C P99 AmpC. The assay can be described thus: broth microdilution MIC, E. cloacae P99.
Description: as §1, §2, §3
(Dilution methods test growth across graded concentrations, often in twofold steps.)

Assay [3] concerns K. pneumoniae 156319 expressing KPC-3. The assay can be described thus: broth microdilution MIC, K. pneumoniae KPC-3. As to conditions: Fixed Mero (meropenem) 4 μg/mL.
Description: as §1, §2, §3

For assay [4], the system named is K. pneumoniae A-1797 expressing KPC-2 and VIM-4. The assay can be described thus: broth microdilution MIC, K. pneumoniae KPC-2 and VIM-4. The note with it: Fixed Mero (meropenem) 4 μg/mL.
Description: as §1, §2, §3

[5] abbreviates: Fixed CAZ (ceftazidime) 4 μg/mL.

Structures are written as SMILES.

As a reminder, the MIC is the lowest concentration found to suppress growth.

Take `CC(C)(O/N=C(\C(=O)N[C@@H]1C(=O)N2C(C(=O)[O-])=C(C[n+]3ccccc3)CS[C@H]12)c1csc(N)n1)C(=O)O` [Ceftazidime, ceftazidime, reference compound]: the MIC in assay [1] (Escherichia coli, read-out: MIC alone) was more than 128 µg/mL. Besides, in assay [2] (partner antibiotic alone, E. cloacae expressing Class C P99), the MIC alone turned out to be 128 µg/mL.

As to `CC(O)CCC(=O)N[C@H]1Cc2cccc(C(=O)O)c2OB1O` (stereo partly drawn) [Example 63, (R)-2-Hydroxy-3-(4-hydroxy-pentanoylamino)-3,4-dihydro-2H-benzo[e][1,2]oxaborinine-8-carboxylic acid], the “MIC of exemplary compounds in presence of fixed β-lactams, E. coli ESBL4 CTX-M-15” value in assay [1] (setting [5]) is recorded as “C (C represents the MIC in the presence of ≤4 g/mL of a β-lactamase inhibitor)”. In assay [2] (setting [5]), the “MIC of exemplary compounds in presence of fixed β-lactams, E. cl. 144200 p99 AmpC” value was “C (C represents the MIC in the presence of ≤4 g/mL of a β-lactamase inhibitor)”. Further, in assay [3], the “MIC of exemplary compounds in presence of fixed β-lactams, K.P. 156319 KPC-3” value is listed as “C (C represents the MIC in the presence of ≤4 g/mL of a β-lactamase inhibitor)”. Besides, the “MIC of exemplary compounds in presence of fixed β-lactams, K.P. A-1797 KPC-2 VIM-4” value in assay [4] was “B (B represents the MIC in the presence of between 8 and 32 g/mL of a β-lactamase inhibitor)”.
